For one experiment, the target named is T1, Gal-1 (Homo sapiens, UniProt P09382).
T1 construct: gene LGALS1
Description: biochemical.

For another experiment, the target named is T2, Gal-3^CRD (Homo sapiens, UniProt P17931).
T2 construct: gene LGALS3
Nature of the experiment: biochemical.

T1 sequence (P09382 whole entry): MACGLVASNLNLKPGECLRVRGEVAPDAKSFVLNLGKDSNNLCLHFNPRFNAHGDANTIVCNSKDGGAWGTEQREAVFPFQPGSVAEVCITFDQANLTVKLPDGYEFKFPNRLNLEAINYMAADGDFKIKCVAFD
T2 sequence (P17931 112-250): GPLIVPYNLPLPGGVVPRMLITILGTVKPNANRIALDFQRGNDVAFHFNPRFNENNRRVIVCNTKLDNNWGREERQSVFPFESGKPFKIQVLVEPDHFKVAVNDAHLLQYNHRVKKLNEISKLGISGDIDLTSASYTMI

One may read the Kd as the concentration at which binding is half-saturated. Read a high Kd as weaker binding. Turning to `OC[C@H]1O[C@@H]([Se][C@@H]2O[C@H](CO)[C@H](O)[C@H](O)[C@H]2O)[C@H](O)[C@@H](O)[C@H]1O` [SeDG], the Kd was 23.7 ± 4.2 µM on Gal-1 and 20.2 ± 2.2 µM at Gal-3^CRD.

These data come from publication PMC9368490, “Exploring the Molecular Interactions of Symmetrical and Unsymmetrical Selenoglycosides with Human Galectin-1 and Galectin-3” (International Journal of Molecular Sciences, 2022).
